The source of these data is article PMC5499624 (Biomolecules & Therapeutics, 2017).

Counter-ions that a name gives are not always drawn. Like-named read-outs stand apart in the source and are kept apart here.

Data set [1] relates to TR-BBB cells. Description: Uptake of radiolabelled substrates in siRNA-transfected TR-BBB cells. Type of data set: in vitro ADME, rat. Conditions: 37°C, 5 min.
Data set [2] has as its system proton coupled antiporter. The following applies: read-out: in vivo Km; mouse, in situ brain perfusion; ref André et al., 2009; cited from earlier work.
The subject of data set [3] is [^3H]imperatorin brain uptake. Description: Brain uptake index. Type of data set: in vivo, rat. Conditions: 15 s after injection.
The subject of the next data set is hCMEC/D3 cells. Conditions: ref Kitamura et al., 2014, Sadiq et al., 2011; cited from earlier work.
Data set [4] is classed as in vivo, SD rats. Conditions: for AUC: 60 min; for Uptake: 60 min after IV.
The nature of data set [5]: [^3H]imperatorin uptake by TR-BBB cells. The class given is in vitro ADME, rat. Conditions: rat, pH 7.4.
Data set [6] concerns TR-BBB cells. As to the kind of experiment: [^3H]imperatorin uptake by TR-BBB cells. The class given is in vitro ADME, rat.
Another data set concerns P-glycoprotein (P-gp). The following applies: ref Lili et al. (2013), cited from earlier work.
The test system of another data set is rat brain. As to the kind of experiment: [^3H]imperatorin brain uptake by internal carotid artery perfusion. Type of data set: in vivo, SD rats. Conditions: ICAP.
The test system of data set [7] is [^3H]imperatorin uptake by TR-BBB cells. Description: Inhibition of [^3H]imperatorin uptake by TR-BBB cells by selected compounds. Type of data set: in vitro ADME, rat. The following applies: compound 1 mM (L-Carnitine: concentration cell empty), 37°C, 5 min.
Data set [8] deals with [^3H]imperatorin brain uptake. Type of data set: in vivo, SD rats. Conditions: compound 1 mM, ICAP 4 ml/min for 15 sec, pH 7.4.
The test system of data set [9] is [^3H]imperatorin uptake by TR-BBB cells. The class given is in vitro ADME, rat. The following applies: 37°C, 5 min.
The conditions of data set [10]: sucrose; ref Lee and Kang, 2016; cited from earlier work.

In the case of `CC(=O)O[C@H](CC(=O)[O-])C[N+](C)(C)C` [ALC, acetyl-L-carnitine], in the data set with TR-BBB cells [1] (Octn2 siRNA), the “uptake after siRNA transfection” value was “significantly inhibited”.

Turning to `Clc1cccc(Cl)c1N=C1NCCN1` [Clonidine, clonidine hydrochloride], in [2], the Km was 600 µM. Moreover, the “BUI of [^3H]imperatorin in presence of inhibitor” value (“BUI … of inhibitor” for short) in data set [3] (inhibitor 10 mM) came to 33.9 ± 5.5 %.

On to `CN(C)CCOC(c1ccccc1)c1ccccc1` [Diphenhydramine, diphenhydramine], for which the Km in the data set with hCMEC/D3 cells was 59 µM.

On to `CC(C)=CCOc1c2occc2cc2ccc(=O)oc12` [Imperatorin], for which, in data set [4] (IV injection, rat brain), the “Brain VD relative to [^14C]sucrose” value was “about 6 fold”. The “BBB PS product relative to sucrose” value amounted to 12 fold in data set [4] (IV injection, sucrose value from Lee and Kang, 2016); 20 fold in data set [4] (IV injection, sucrose value from Wu and Pardridge, 1999). The molecule also returned an AUCss in data set [4] (SD rats, single IV, plasma) of 38.2 ± 1.5 % ID min/mL. The AUC was found to be 22.1 ± 0.8 % ID min/mL in data set [4] (SD rats, single IV, plasma) and 22 ± 1 % ID min/mL in data set [4] (SD rats, single IV, plasma, listed as [^3H]imperatorin). The Uptake in data set [4] (brain, SD rats) came to 0.086 ± 0.008 %ID/g; in data set [4] (heart, SD rats) it was 1.62 ± 0.10 %ID/g; in data set [4] (kidney, SD rats) it was 3.70 ± 0.33 %ID/g; in data set [4] (liver, SD rats) it was 1.21 ± 0.08 %ID/g; in data set [4] (lung, SD rats) it was 1.68 ± 0.03 %ID/g. In addition, in the data set on TR-BBB cells [1] (rPmat, rOct 2, rOctn2 or rOctn1 siRNA), the “uptake after siRNA transfection” value is given as “not significantly affected”. In addition, in data set [3] (inhibitor 1 mM), the “BUI … of inhibitor” value is 24.9 ± 3.4 %. Besides, the microsomal CLint at 5 min in data set [5] was found to be 17 µL/min/mg. Further, the “maximum rate of uptake velocity (Vmax)” value with TR-BBB cells [6] (5 min, pH 7.4) is given as 2.22 nmol/mg protein/min. In the data set with TR-BBB cells [6] (at 30 sec, Fig. 4), the “y-intersection of time course uptake (cell-to-medium ratio)” value is recorded as “approximately 140 ul/mg protein”. In addition, the “[^3H]Imperatorin uptake compared to control” value in the data set on TR-BBB cells [6] (extracellular pH 6.4) is “significantly reduced”; with TR-BBB cells [6] (extracellular pH 8.4), “markedly increased”; in the data set on TR-BBB cells [6] (intracellular acidification by pretreatment with NH4Cl), “increased”; with TR-BBB cells [6] (pHi alkalized by 30 mM NH4Cl) it was “reduced”. In addition, the Km came out at 59 µM in the data set with TR-BBB cells [6] (read-out: Michaelis-Menten constant (Km) of uptake, 5 min, unlabeled imperatorin 0.01∼1 mM, pH 7.4) and 180 µM in the data set with rat brain (read-out: apparent Km of brain influx, imperatorin 0–1 mM, pH 7.4). In addition, the IC50 with P-glycoprotein (P-gp) (P-gp inhibition) was more than 90 µM. Besides, the efflux ratio in the data set on P-glycoprotein (P-gp) (larger than 3.0 = substrate of P-gp) was 0.5. Also, the “Brain transport compared with control” value is on record as “markedly decreased” in the data set on rat brain (carbonate-free HEPES) and “significantly increased” in the data set on rat brain (mannitol Na+-free buffer). Besides, the “Vmax of brain influx” value in the data set with rat brain (imperatorin 0–1 mM, pH 7.4) turned out to be 0.50 µmol/min/g. In addition, the “Kd (unsaturated component, passive diffusion)” value at rat brain (nonlinear regression) was found to be 3.1e-17 µL/min/g.

Consider `C[N+](C)(C)C[C@H](O)CC(=O)[O-]` [L-Carnitine, L-carnitine], for which the “Relative Uptake (% of Control) of [^3H]imperatorin” value in data set [7] is 86.4 ± 5.6 % of Control. In addition, the “Brain volume of distribution (VD, % of Control) of [^3H]imperatorin” value in data set [8] is recorded as 79.2 ± 5.3 % of Control.

Consider `C[n+]1ccc(-c2ccccc2)cc1` [MPP+, 1-Methyl-4-phenylpyridinium ion], for which the “uptake after siRNA transfection” value in the data set with TR-BBB cells [1] (rPmat siRNA) is “significantly inhibited”. In addition, in [7], the “Relative Uptake (% of Control) of [^3H]imperatorin” value is on record as 81.3 ± 3.9 % of Control. In addition, the “Brain volume of distribution (VD, % of Control) of [^3H]imperatorin” value in data set [8] was 56.3 ± 5.8 % of Control.

For the molecule `CNC[C@H](O)[C@@H](O)[C@H](O)[C@H](O)CO` [N-Methylglucamine (NMG), N-Methylglucamine], the “Relative Uptake (% of Control) of [^3H]imperatorin” value in [9] (Na+ replacement by N-methylglucamine) was 97.4 ± 6.6 % of Control.

Regarding `CN1CCC[C@H]1c1cccnc1` [Nicotine, nicotine], the “BUI … of inhibitor” value in data set [3] (inhibitor 10 mM) is recorded as 27.6 ± 0.0 %.

Turning to `Nc1ccc(C(=O)NCC(=O)O)cc1` [PAH], the “Brain volume of distribution (VD, % of Control) of [^3H]imperatorin” value in data set [8] is 94.4 ± 7.1 % of Control. For the same molecule, the “BUI … of inhibitor” value in data set [3] (inhibitor 10 mM) is given as 58.5 ± 6.3%.

With `[Cl-].[K+]` [Potassium ion (KCl)], in [9] (sodium replaced by potassium ion (KCl)), the “Relative Uptake (% of Control) of [^3H]imperatorin” value was 97.3 ± 2.3 % of Control.

Take `[N-]=[N+]=[N-].[Na+]` [Sodium azide, sodium azide]: the “Relative Uptake (% of Control) of [^3H]imperatorin” value in [9] (sodium azide 0.1%, pretreatment, pH 7.4) is reported as 63.8 ± 2.7 % of Control.

For `CC[N+](CC)(CC)CC` [TEA], the “Relative Uptake (% of Control) of [^3H]imperatorin” value in data set [7] is 107 ± 10 % of Control. In addition, the “Brain volume of distribution (VD, % of Control) of [^3H]imperatorin” value in data set [8] was 103 ± 5 % of Control. Also, the “BUI … of inhibitor” value in data set [3] (inhibitor 10 mM) turned out to be 48.6 ± 4.5%.

On to `COc1cccc(C2(O)CCCCC2CN(C)C)c1` (stereo not shown) [Tramadol, tramadol hydrochloride], for which the Km with hCMEC/D3 cells was 49 µM.

Regarding `OC[C@H]1O[C@@](CO)(O[C@H]2O[C@H](CO)[C@@H](O)[C@H](O)[C@H]2O)[C@@H](O)[C@@H]1O` [sucrose], the “BBB PS product” value in [10] is 0.32 ± 0.52 µL/min/g.

Take “carbonyl cyanide-p-trifluorome-thoxyphenylhydrazone [FCCP]”: the “Relative Uptake (% of Control) of [^3H]imperatorin” value in [9] (10 μM FCCP, pre-incubated 10 min, pH 7.4) was 56.2 ± 6.3 % of Control.
